The values that follow come from ChEMBL document CHEMBL1141962, “Angiogenesis inhibitors derived from thalidomide” (2005).

Common to all, as to type: functional
Conditions in all cases: Homo sapiens

Experiment [1] concerns HUVEC. The experiment is described as follows: Inhibitory activity in HUVEC tube formation assay at 10 uM.
Experiment [2] has as its system HUVEC. The experiment in a line: Inhibitory activity in HUVEC tube formation assay at 30 uM.
In experiment [3] the test system is HUVEC. The experiment in a line: Inhibitory activity in HUVEC tube formation assay at 100 uM.

The structures appear in SMILES notation.

`CC(C)c1cccc(C(C)C)c1N1C(=O)c2ccc(O)cc2C1=O` yielded an inhibition at 10 µM in experiment [1] of 8%. This compound returned an inhibition at 30 µM in experiment [2] of 41%. Further, the inhibition at 100 µM in experiment [3] worked out at 59%.
With `O=C1CCC(N2C(=O)c3cccc([N+](=O)[O-])c3C2=O)C(=O)N1` (configuration not stated), 100 µM produced 32% inhibition in experiment [3].
Still for that read-out and setting: the result for `Nc1cccc2c1CN(C1CCC(=O)NC1=O)C2=O` (configuration not stated) [LENALIDOMIDE] reads 32%; that for `Nc1cccc2c1C(=O)N(C1CCC(=O)NC1=O)C2=O` (configuration not stated) [POMALIDOMIDE], 21%; that for `O=C1CCC(N2C(=O)c3ccccc3C2=O)C(=O)N1` (configuration not stated) [THALIDOMIDE], 26%.

For orientation: inhibition means the change of the read-out against control, counted positive when it falls. A higher inhibition goes with a strong effect.
